Among the test systems are MALME-3M melanoma; OVCAR-5 ovarian; HCT-116 colon; SF-268 CNS; A498 renal; NCI-H226 lung; U251 CNS; HOP-62 NSCLC; SNB-19 CNS.
Holding throughout (test): DTP human tumour cell line panel, 48 h

Results on 13 compounds are retold here after PubChem BioAssay (NCI).

As a reminder, the TGI is the concentration giving total growth inhibition. Read a high TGI as less potent growth arrest. A word on the GI50: it is the concentration that inhibits growth by half.

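1) Cells in 96-well plates. 2) Compound, 48 h, 5 concentrations. 3) Linear interpolation between surrounding doses. 4) Unreached endpoint = highest concentration. GI50 marks 50% less growth. TGI marks complete inhibition of growth.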

For `CC1CCC2(NC1)OC1CC3[C@@H]4CC=C5C=CCC[C@]5(C)C4CC[C@]3(C)C1C2C` (stereo not given in full), the TGI is 35.3 µM in the assay on MALME-3M melanoma; 50 µM in the assay with OVCAR-5 ovarian; 32.7 µM in the assay with HCT-116 colon; over 100 µM in the assay on SF-268 CNS; over 100 µM in the assay with A498 renal; over 100 µM with NCI-H226 lung. The results for the TGI in the assay on U251 CNS, in the assay on HOP-62 NSCLC and in the assay with SNB-19 CNS were 88.7 µM, 36.6 µM and over 100 µM, respectively.
For `O=C(CC1(O)C(=O)Nc2ccc(Br)cc21)c1ccc(Cl)cc1` (stereo not given), the concentration for total growth inhibition (TGI) in the assay with MALME-3M melanoma, with OVCAR-5 ovarian, with HCT-116 colon, in the assay with SF-268 CNS, with A498 renal and with NCI-H226 lung was over 100 µM in each case. For the same compound, the TGI in the assay on U251 CNS was 95.1 µM; with HOP-62 NSCLC it was over 100 µM; in the assay with SNB-19 CNS, over 100 µM.
As to `COc1cc2c(c(OC)c1OC)-c1ccc(NNC(=S)N(Cc3cccc(C[N+](Cc4cccc(CNC56CC7CC(CC(C7)C5)C6)c4)(Cc4cccc(CNC56CC7CC(CC(C7)C5)C6)c4)Cc4cccc(CN(C(=S)NNc5ccc6c(cc5=O)[C@@H](NC(C)=O)CCc5cc(OC)c(OC)c(OC)c5-6)C56CC7CC(CC(C7)C5)C6)c4)c3)C34CC5CC(CC(C5)C3)C4)c(=O)cc1[C@@H](NC(C)=O)CC2` (stereo not given in full), the GI50 in the assay with MALME-3M melanoma was 0.83 µM; in the assay with OVCAR-5 ovarian, 1.17 µM; with HCT-116 colon, 0.896 µM; with SF-268 CNS, 1.37 µM; in the assay on A498 renal, 1.07 µM; in the assay on NCI-H226 lung, 1.96 µM. Also, the figures for the GI50 in the assay on HOP-62 NSCLC and in the assay on SNB-19 CNS were 2.14 µM and 1.65 µM, respectively. Further, the TGI in the assay with MALME-3M melanoma came out at 3.04 µM; in the assay with OVCAR-5 ovarian it was 5.03 µM; in the assay with HCT-116 colon, 3.07 µM; with SF-268 CNS, 6.54 µM; in the assay with A498 renal, 3.28 µM; in the assay with NCI-H226 lung it was 9.97 µM. In addition, the concentration for total growth inhibition (TGI) is 7.43 µM in the assay on HOP-62 NSCLC and 6.2 µM in the assay with SNB-19 CNS.
Regarding `O=c1[nH]c(=O)n(C2CC(O)C(CO)O2)cc1C(OCC(F)(F)F)OCC(F)(F)F` (stereo not given), the TGI in the assay with MALME-3M melanoma, with OVCAR-5 ovarian, with SF-268 CNS, with A498 renal, with U251 CNS and in the assay on HOP-62 NSCLC was over 100 µM in each case. Moreover, the TGI in the assay with SNB-19 CNS is over 100 µM.
Consider `C[C@]12CC/C(=N\N)C[C@@H]1CC[C@@H]1[C@@H]2CC[C@]2(C)/C(=N/N)CC[C@@H]12`, for which the GI50 with MALME-3M melanoma, with OVCAR-5 ovarian, with HCT-116 colon, with SF-268 CNS, in the assay on A498 renal and with U251 CNS was over 100 µM each time. The GI50 in the assay on HOP-62 NSCLC was over 100 µM. Moreover, the TGI in the assay with MALME-3M melanoma, in the assay with OVCAR-5 ovarian, in the assay with HCT-116 colon, in the assay on SF-268 CNS, in the assay on A498 renal and in the assay with U251 CNS was over 100 µM throughout. For the same compound, in the assay on HOP-62 NSCLC, the TGI is over 100 µM.
For the compound `CC1=C(SCc2ccccc2)C(=O)c2ccccc2C1=O`, the TGI in the assay on MALME-3M melanoma is 29.2 µM; in the assay with OVCAR-5 ovarian it was 71.7 µM; with HCT-116 colon it was 18.2 µM; in the assay on SF-268 CNS, 31.3 µM; with A498 renal, 62.1 µM; in the assay with U251 CNS, 33.5 µM. In addition, the TGI with HOP-62 NSCLC turned out to be 33.5 µM.
In the case of `CCOC(=O)C(=O)C1C(=O)Nc2ccccc21` (stereo not given), the TGI with MALME-3M melanoma, in the assay on OVCAR-5 ovarian, in the assay with HCT-116 colon, in the assay on SF-268 CNS, with A498 renal and in the assay on NCI-H226 lung was over 100 µM throughout. Also, the TGI with U251 CNS, with HOP-62 NSCLC and in the assay on SNB-19 CNS was over 100 µM in each case.
`O=C1O[C@H](C(Cl)(Cl)Cl)N2CCCC12` (stereo not given in full): the concentration for total growth inhibition (TGI) with MALME-3M melanoma, with OVCAR-5 ovarian, in the assay with SF-268 CNS, in the assay with A498 renal, with NCI-H226 lung and in the assay on U251 CNS was over 100 µM throughout. Besides, the TGI in the assay on HOP-62 NSCLC and with SNB-19 CNS was over 100 µM throughout.
For `C[N+](C)([O-])CCCNc1c2ccccc2nc2cccc([N+](=O)[O-])c12`, the total growth inhibition concentration (TGI) is 0.419 µM in the assay on MALME-3M melanoma; 1.57 µM with OVCAR-5 ovarian; 1.02 µM with HCT-116 colon; 8.14 µM in the assay on SF-268 CNS; 0.545 µM in the assay with A498 renal; 1.39 µM in the assay on NCI-H226 lung. Further, the total growth inhibition concentration (TGI) with U251 CNS was found to be 2.24 µM; with HOP-62 NSCLC, 3.23 µM; in the assay with SNB-19 CNS, 3.2 µM.
Turning to `CCNc1c(C(=O)N(CC)CC)c(=O)[nH]c2ncccc12`, the concentration for total growth inhibition (TGI) in the assay on MALME-3M melanoma, in the assay on OVCAR-5 ovarian, in the assay on HCT-116 colon, with SF-268 CNS, with A498 renal and with NCI-H226 lung was over 100 µM throughout. For the same compound, the TGI with U251 CNS, with HOP-62 NSCLC and in the assay on SNB-19 CNS was over 100 µM in each case.
On to `CS(=O)(=O)N(CCC#N)c1ccc(/C=N/NC(=O)CC(=O)Nc2cccc(Cl)c2)cc1`, for which the TGI with MALME-3M melanoma, in the assay with OVCAR-5 ovarian, in the assay with HCT-116 colon, in the assay on SF-268 CNS, in the assay on A498 renal and with NCI-H226 lung was over 100 µM each time. For the same compound, the TGI with U251 CNS, in the assay with HOP-62 NSCLC and in the assay on SNB-19 CNS was over 100 µM in each case.
On to `O=C1CCC2CCc3cccc4oc1c2c34` (stereo not given), for which the TGI in the assay on HCT-116 colon, with A498 renal, in the assay on U251 CNS, with HOP-62 NSCLC and with SNB-19 CNS was over 100 µM in each case.
As for `CSc1ccc(-c2cc(-c3ccc(NC(=O)CCCN4CCCC4)cc3)nc(-c3ccc(NC(=O)CCCN4CCCC4)cc3)c2)cc1`, the GI50 is 14 µM with MALME-3M melanoma; 2.28 µM in the assay with OVCAR-5 ovarian; 2.15 µM in the assay with SF-268 CNS; 3.12 µM in the assay on NCI-H226 lung; 1.64 µM with U251 CNS; 1.7 µM with HOP-62 NSCLC. Further, the GI50 with SNB-19 CNS is 4.92 µM. For the same compound, the concentration for total growth inhibition (TGI) in the assay with MALME-3M melanoma was 42.7 µM; with OVCAR-5 ovarian, 4.86 µM; with SF-268 CNS, 5.01 µM; with NCI-H226 lung it was 16.1 µM; in the assay with U251 CNS, 3.12 µM; in the assay on HOP-62 NSCLC it was 3.5 µM. For the same compound, the TGI with SNB-19 CNS was 23.8 µM.
